Series [1] relates to HL-60 cells. Put plainly: MTT in vitro cytotoxicity assay, HL-60. It counts as cell-based. The conditions noted are these: 48 h incubation, mean ± SEM, read-out: IC50 HL-60. As for the experimental part:
(§1) The promyelocytic leukemia HL-60 and breast cancer adenocarcinoma MCF-7 cell lines were purchased from the European Collection of Cell Cultures (ECACC). Leukemia cells were cultured in RPMI 1640 plus GlutaMax I medium (Gibco/Life Technologies, Carlsbad, CA, USA). MCF-7 cells were maintained in Minimum Essential Medium Eagle (Sigma Aldrich, St. Louis, MO, USA) and supplemented with 2 mM glutamine and men non-essential amino acid solution (Sigma Aldrich, St. Louis, MO, USA). Both media were supplemented with 10% heat-inactivated fetal bovine serum (Biological Industries, Beit-Haemek, Israel) and antibiotics (100 U/mL penicillin and 100 μg/mL streptomycin) (Sigma-Aldrich, St. Louis, MO, USA). Human umbilical vein endothelial cells (HUVECs) were purchased from the American Type Culture Collection (ATCC). Cells were cultured using EGM-2 Endothelial Medium BulletKit purchased from Lonza (Lonza, Walkersville, MD, USA). Cells were maintained at 37 °C in 5% CO2 atmosphere and grown until 80% confluent.
(§2) The tested compounds were dissolved in sterile dimethyl sulfoxide (DMSO) and further diluted with culture medium. The final concentration of DMSO in cell cultures was less than 0.1% v/v. Controls without and with 0.1% DMSO were performed in each experiment. At the used concentration, DMSO had no effect on the observed parameters.
(§3) The MTT (3-(4,5-dimethylthiazol-2-yl)-2,5-diphenyltetrazolium bromide) assay, which measures the activity of cellular dehydrogenases, was performed according to the Mosmann method. Exponentially growing cells were seeded into 24-well plates at a density of 8 × 10^4 cells/mL and left to grow for 24 h. After 24 h or 48 h of incubation with various concentrations of the tested compounds (dissolved in DMSO and diluted with complete culture medium), cells were incubated with 0.1 mL of MTT solution (5 mg/mL in phosphate buffered saline) for 1.5 h. The metabolically active cells reduced MTT to blue formazan crystals. The plates were centrifuged, and the supernatant was discarded. DMSO (1 mL) was added to each well to dissolve the crystals, whose absorbance was measured at 560 nm using FlexStation 3 Multi-Mode Microplate Reader (Molecular Devices, LLC, San Jose, CA, USA). The untreated cells were used as control. The IC50 values were calculated from the concentration–response curves. The data were expressed as mean ± SEM of three independent experiments.

In series [2] the test system is MCF-7 cells. Put plainly: MTT in vitro cytotoxicity assay, MCF-7. It counts as cell-based. To be noted: mean ± SEM. As for the experimental part:
as §1, §2, §3

The subject of series [3] is HUVEC cells. Briefly: MTT in vitro cytotoxicity assay, HUVEC (normal cells). It counts as cell-based, human. The conditions noted are these: 48 h incubation, mean ± SEM. As for the experimental part:
as §1, §2, §3

Where [4] appears, read: Homo sapiens, MCF7, 48 h incubation.

We go through 20 compounds from paper PMC9181899, “Synthesis and Anticancer Properties of New 3-Methylidene-1-sulfonyl-2,3-dihydroquinolin-4(1H)-ones” (Molecules, 2022).

Structures are written as SMILES. Where two headings read alike, the source gives them in different places. Some results are limits rather than exact numbers.

For the compound `C=C1C(=O)c2ccccc2N(S(=O)(=O)c2ccc(Cl)cc2)C1c1ccc(OC)cc1` (centres unmarked) [Compound 5h, 1-((4-Chlorophenyl)sulfonyl)-2-(4-methoxyphenyl)-3-methylidene-2,3-dihydroquinolin-4(1H)-one], the melting point is 140 °C. Further, in series [1] (Homo sapiens, HL-60, 48 h), the half-maximal inhibitory concentration (IC50) stood at 0.92 ± 0.01 µM. In addition, the half-inhibitory concentration (IC50) in series [2] (setting [4]) was 2.1 ± 0.16 µM.
As to `C=C1C(=O)c2cc(Br)ccc2N(S(=O)(=O)c2ccc(C)cc2)C1C(C)C` (centres unmarked) [Compound 5r, 6-Bromo-3-methylidene-2-(propan-2-yl)-1-tosyl-2,3-dihydroquinolin-4(1H)-one], the melting point is 118 °C. In series [1], the IC50 turned out to be 0.19 ± 0.03 µM. Besides, in series [1] (Homo sapiens, HL-60, 48 h), the IC50 was less than 0.3 µM. For the same compound, it took 0.47 ± 0.03 µM to reach half-maximal inhibition in series [3] (Homo sapiens, HUVEC) (IC50). The compound also gave an IC50 in series [2] (setting [4]) of 0.83 ± 0.02 µM.
Regarding `C=C1C(=O)c2cc(Cl)ccc2N(S(=O)(=O)c2ccc(C)cc2)C1CC` (centres unmarked) [Compound 5m, 6-Chloro-2-ethyl-3-methylidene-1-tosyl-2,3-dihydroquinolin-4(1H)-one], the melting point is 126 °C. For the same compound, the 50% inhibitory concentration (IC50) in series [1] (Homo sapiens, HL-60, 48 h) came out at 1.75 ± 0.03 µM. Further, in series [2] (setting [4]), half-maximal inhibition (IC50) required 3.48 ± 0.42 µM.
With `C=C1C(=O)c2ccccc2N(S(=O)(=O)c2ccccc2)C1c1ccccc1` (centres unmarked) [Compound 5c, 3-Methylidene-2-phenyl-1-(phenylsulfonyl)-2,3-dihydroquinolin-4(1H)-one], the melting point came to 150 °C. For the same compound, the IC50 in series [1] (Homo sapiens, HL-60, 48 h) came out at 1.36 ± 0.13 µM. In series [2] (setting [4]), this compound displayed an IC50 of 2.25 ± 0.2 µM.
For the compound `C=C1C(=O)c2ccccc2N(S(=O)(=O)c2ccc(Cl)cc2)C1C(C)C` (centres unmarked) [Compound 5f, 1-((4-Chlorophenyl)sulfonyl)-3-methylidene-2-(propan-2-yl)-2,3-dihydroquinolin-4(1H)-one], the melting point was found to be 126 °C. Also, the concentration for half-maximal inhibition (IC50) in series [1] came to 0.23 ± 0.01 µM. Further, in series [1] (Homo sapiens, HL-60, 48 h), the half-maximal inhibitory concentration (IC50) was less than 0.3 µM. The compound further yielded an IC50 in series [3] (Homo sapiens, HUVEC) of 0.99 ± 0.07 µM. Besides, in series [2] (setting [4]), the half-inhibitory concentration (IC50) was 0.86 ± 0.02 µM.
Compound `C=C1C(=O)c2cc(Br)ccc2N(S(=O)(=O)c2ccc(C)cc2)C1CC` (centres unmarked) [Compound 5q, 6. -Bromo-2-ethyl-3-methylidene-1-tosyl-2,3-dihydroquinolin-4(1H)-one] yielded a melting point of 132 °C. In addition, the IC50 in series [1] (Homo sapiens, HL-60, 48 h) was determined as 0.61 ± 0.04 µM. Also, in series [3] (Homo sapiens, HUVEC), inhibition was half-maximal at 1 ± 0.22 µM (IC50). Besides, the IC50 in series [2] (setting [4]) came out at 1.83 ± 0.15 µM.
The like results for `C=C1C(=O)c2ccccc2N(S(=O)(=O)c2ccc(Cl)cc2)C1CC` (centres unmarked) [Compound 5e, 1-((4-Chlorophenyl)sulfonyl)-2-ethyl-3-methylidene-2,3-dihydroquinolin-4(1H)-one] were, in that order, 118 °C, 0.37 ± 0.05 µM, 0.75 µM and 1.61 ± 0.07 µM.
The like results for `C=C1C(=O)c2cc(Cl)ccc2N(S(=O)(=O)c2ccc(C)cc2)C1C(C)C` (centres unmarked) [Compound 5n, 6-Chloro-3-methylidene-2-(propan-2-yl)-1-tosyl-2,3-dihydroquinolin-4(1H)-one] were, in that order, 130 °C, 0.67 ± 0.01 µM, 0.68 ± 0.03 µM and 1.65 ± 0.05 µM.
The like results for `C=C1C(=O)c2cc(OC)c(OC)cc2N(S(=O)(=O)c2ccc(C)cc2)C1CC` (centres unmarked) [Compound 5i, 2-Ethyl-6,7-dimethoxy-3-methylidene-1-tosyl-2,3-dihydroquinolin-4(1H)-one] were, in that order, 168 °C, 0.37 ± 0.02 µM, 0.42 ± 0.08 µM and 1.01 ± 0.05 µM.
For the compound `C=C1C(=O)c2ccccc2N(S(=O)(=O)c2ccc(Cl)cc2)C1c1ccccc1` (centres unmarked) [Compound 5g], the melting point came out at 178 °C. Moreover, in series [1] (Homo sapiens, HL-60, 48 h), the IC50 amounted to 0.78 ± 0.07 µM. The compound also displayed an IC50 in series [2] (setting [4]) of 1.89 ± 0.03 µM.
`C=C1C(=O)c2cc(Br)ccc2N(S(=O)(=O)c2ccc(C)cc2)C1c1ccc(OC)cc1` (centres unmarked) [Compound 5t, 6-Bromo-2-(4-methoxyphenyl)-3-methylidene-1-tosyl-2,3-dihydroquinolin-4(1H)-one] yielded a melting point of 168 °C. Besides, the half-inhibitory concentration (IC50) in series [1] (Homo sapiens, HL-60, 48 h) amounted to 0.74 ± 0.06 µM. This compound also had an IC50 in series [2] (setting [4]) of 2.81 ± 0.05 µM.
`C=C1C(=O)c2cc(OC)c(OC)cc2N(S(=O)(=O)c2ccc(C)cc2)C1C(C)C` (centres unmarked) [Compound 5j, 6,7-Dimethoxy-3-methylidene-2-(propan-2-yl)-1-tosyl-2,3-dihydroquinolin-4(1H)-one] showed a melting point of 150 °C. The IC50 in series [1] (Homo sapiens, HL-60, 48 h) came out at 0.43 ± 0.02 µM. The IC50 in series [3] (Homo sapiens, HUVEC) stood at 0.99 ± 0.07 µM. In addition, the IC50 in series [2] (setting [4]) worked out at 1.44 ± 0.07 µM.
`C=C1C(=O)c2cc(OC)c(OC)cc2N(S(=O)(=O)c2ccc(C)cc2)C1c1ccc(OC)cc1` (centres unmarked) [Compound 5l, 6,7-Dimethoxy-2-(4-methoxyphenyl)-3-methylidene-1-tosyl-2,3-dihydroquinolin-4(1H)-one] returned a melting point of 196 °C. Also, the IC50 in series [1] (Homo sapiens, HL-60, 48 h) stood at 1.48 ± 0.06 µM. Also, in series [2] (setting [4]), the half-maximal inhibitory concentration (IC50) is 1.15 ± 0.04 µM.
Consider `C=C1C(=O)c2cc(Br)ccc2N(S(=O)(=O)c2ccc(C)cc2)C1c1ccccc1` (centres unmarked) [Compound 5s, 6-Bromo-3-methylidene-2-phenyl-1-tosyl-2,3-dihydroquinolin-4(1H)-one], for which the melting point was determined as 162 °C. Further, in series [1] (Homo sapiens, HL-60, 48 h), the IC50 turned out to be 0.62 ± 0.01 µM. In series [2] (setting [4]), this compound displayed a half-maximal inhibitory concentration (IC50) of 2.67 ± 0.05 µM.
The like results for `C=C1C(=O)c2ccccc2N(S(=O)(=O)c2ccccc2)C1c1ccc(OC)cc1` (centres unmarked) [Compound 5d, 2-(4-Methoxyphenyl)-3-methylidene-1-(phenylsulfonyl)-2,3-dihydroquinolin-4(1H)-one] were, in that order, 152 °C, 1.12 ± 0.37 µM and 1.21 ± 0.24 µM.
The like results for `C=C1C(=O)c2cc(OC)c(OC)cc2N(S(=O)(=O)c2ccc(C)cc2)C1c1ccccc1` (centres unmarked) [Compound 5k, 6,7-Dimethoxy-3-methylidene-2-phenyl-1-tosyl-2,3-dihydroquinolin-4(1H)-one] were, in that order, 196 °C, 0.58 ± 0.02 µM and 1.46 ± 0.09 µM.
Regarding `N.N.O=C([O-])C1(C(=O)[O-])CCC1.[Pt+2]` [Carboplatin, reference compound], the results for the IC50 in series [1], in series [3] and in series [2] (48 h incubation) were 3.8 ± 0.45 µM, 5.35 ± 0.05 µM and 2.9 ± 0.1 µM, respectively.
`C=C1C(=O)c2cc(Cl)ccc2N(S(=O)(=O)c2ccc(C)cc2)C1c1ccccc1` (centres unmarked) [Compound 5o, 6-Chloro-3-methylidene-2-phenyl-1-tosyl-2,3-dihydroquinolin-4(1H)-one] gave a melting point of 162 °C. Moreover, the IC50 in series [1] (Homo sapiens, HL-60, 48 h) stood at 2.04 ± 0.05 µM. The IC50 in series [2] (setting [4]) was determined as 3.67 ± 0.41 µM.
`C=C1C(=O)c2ccccc2N(S(=O)(=O)c2ccccc2)C1C(C)C` (centres unmarked) [Compound 5b, 3-Methylidene-1-(phenylsulfonyl)-2-(propan-2-yl)-2,3-dihydroquinolin-4(1H)-one] yielded a melting point of 86 °C. In series [1], the IC50 was 0.29 ± 0.02 µM. Moreover, in series [1] (Homo sapiens, HL-60, 48 h), the half-maximal inhibitory concentration (IC50) was less than 0.3 µM. In series [3] (Homo sapiens, HUVEC), this compound had a 50% inhibitory concentration (IC50) of 0.78 ± 0.21 µM. In series [2] (setting [4]), this compound registered an IC50 of 0.83 ± 0.02 µM.
Compound `C=C1C(=O)c2cc(Cl)ccc2N(S(=O)(=O)c2ccc(C)cc2)C1c1ccc(OC)cc1` (centres unmarked) [Compound 5p, 6-Chloro-2-(4-methoxyphenyl)-3-methylidene-1-tosyl-2,3-dihydroquinolin-4(1H)-one] gave a melting point of 150 °C. Further, the IC50 in series [1] (Homo sapiens, HL-60, 48 h) worked out at 2.07 ± 0.02 µM. The IC50 in series [2] (setting [4]) worked out at 3.6 ± 0.19 µM.
